From patent US11986464B2, “5HT3R antagonist for use in treating aneurysms and cardiovascular risk” (University of Kentucky Research Foundation, priority 2021, dated 2024)

Experiments:
[1] = tested on: AngII-infused XYM Ldlr−/− mice; test: Serum cholesterol and triglycerides by enzymatic assay kits; format: in vivo; conditions: in mg/dL (unit assumed)
Description: Male mice (XYM Ldlr−/−) were fed a Western diet (high fat, high sucrose, high cholesterol) beginning one week prior to the start of treatments. XYM Ldlr−/− mice were then administered two different doses of Trop (10 or 20 mg/kg/day) by osmotic minipump for 7 days. The minipumps were then replaced with new pumps containing both AngII (1,000 ng/kg/min) and Trop and treatment was continued for 28 days. Concentrations of total serum cholesterol, triglycerides and free fatty acids were quantified (blood collected from cardiac puncture) using enzymatic assay kits.

[2] = tested on: AngII-infused XYM Ldlr−/− mice; test: Maximal external diameters of excised abdominal aortas; format: in vivo; conditions: ±SEM
Description: Male mice (XYM Ldlr−/−) were fed a Western diet (high fat, high sucrose, high cholesterol) beginning one week prior to the start of treatments. XYM Ldlr−/− mice were then administered two different doses of Trop (10 or 20 mg/kg/day) by osmotic minipump for 7 days. The minipumps were then replaced with new pumps containing both AngII (1,000 ng/kg/min) and Trop and treatment was continued for 28 days. External abdominal aortic diameters were quantified on excised, cleaned tissue mounted on a black wax background. A Nikon SMZ800 dissecting microscope was used to obtain aorta images and the maximal external diameter of the abdominal aorta was measured using Nikon NIS-Elements Version 5.2.

[3] = tested on: AngII-infused XYM Ldlr−/− mice; test: Ultrasound internal lumen diameters of abdominal aortas; format: in vivo; conditions: for average internal lumen diameter of abdominal aorta on Day 27: ultrasound, ±SEM, in mm (unit assumed)
Description: (§1) Male mice (XYM Ldlr−/−) were fed a Western diet (high fat, high sucrose, high cholesterol) beginning one week prior to the start of treatments. XYM Ldlr−/− mice were then administered two different doses of Trop (10 or 20 mg/kg/day) by osmotic minipump for 7 days. The minipumps were then replaced with new pumps containing both AngII (1,000 ng/kg/min) and Trop and treatment was continued for 28 days.
Internal lumen diameters of abdominal aortas from AngII treated mice treated with either dose of tropisetron were smaller than those from the AngII alone group after 27 days of treatment (FIG. 18). The average diameters on Day 27 were: AngII=1.77±0.35; Trop 10=1.32±0.23; Trop 20=1.20±0.28 (±SEM, *P<0.05 compared to AngII). The average diameters in all three groups increased from their baseline values with the AngII group having the largest increase followed by the Trop 20 and then Trop 10 group. […] An increase of 50% or more is considered an aneurysm.

[4] = tested on: AngII-infused XYM Ldlr−/− mice; test: Incidence and grading of AngII-induced abdominal aortic aneurysms; format: in vivo; conditions: for mice with Abdominal Aneurysm Grade 0: 0 = no aneurysm; for mice with Abdominal Aneurysm Grade 4: 4 being a rupture
Description: as §1

[5] = tested on: AngII-infused XYM Ldlr−/− mice; test: Atherosclerosis quantified en face (aortic arch, thoracic aorta); format: in vivo
Description: as §1
Atherosclerosis was quantified en face in the aortic arch. Briefly, the entire length of the aorta was removed and the intimal surface exposed, in its entirety, by a longitudinal cut through the inner curvature of the aortic arch and down the anterior aspect of the remaining aorta. A cut is also made through the greater curvature of the aortic arch to the subclavian branch. The tissue is then pinned to a dark surface. Arch areas were defined by drawing a 3-mm line from the left subclavian artery. The intimal area of the aortic arch was defined as the region from the orifice of innominate artery to the orifice of the left subclavian artery. Thoracic areas were defined by drawing a 9 mm line from the end of the arch area to the diaphragm muscle. Atherosclerotic areas were quantified by drawing a line around the borders and summing the total area of each. Lesions were summed and divided by the total arch or thoracic area to calculate the percent lesion area. Measurements were performed using Nikon NIS-Elements Version 5.2.

[6] = tested on: AngII-infused XY male Ldlr−/− mice (XYM); test: AngII-induced aortic pathology (DTA, AA) and aortic weights; format: in vivo; conditions: for mean weight of the aortas: 7 days then 28 days with AngII 1,000 ng/kg/min, ±SEM
Description: Tropisetron (Trop) is an exemplary 5HT3R antagonist used in these studies.^136 Effects of Trop were tested against AngII-induced aortic pathology in XY male Ldlr−/− mice (XYM). […] Mice were fed a Western diet (high fat, high sucrose, high cholesterol) beginning one week prior to the start of treatments. XYM Ldlr−/− mice were administered two different doses of Trop (10 or 20 mg/kg/day) by osmotic minipump for 7 days. The minipumps were then replaced with new pumps containing both AngII (1,000 ng/kg/min) and Trop and treatment was continued for 28 days. Aortas were removed from the iliac bifurcation to the end of the arch and fixed in formalin. Aortas were then cleaned and weighed.

[7] = tested on: AngII-infused XYM Ldlr−/− mice; test: Systolic and diastolic blood pressure induced by AngII; format: in vivo; conditions: for mean systolic blood pressure: ±SEM
Description: as §1
Blood pressures were taken on five consecutive days. Measurements from the last three days were used to calculate blood pressures for each group. The mean systolic blood pressures are in mm Hg (±SEM): AngII=149±3.4; Trop 10=146±5.6; Trop 20=128±4.4. The mean diastolic blood pressures were in mm Hg: AngII=86±4.0; Trop 10=83±6.0; Trop 20=70±4.1 (FIG. 21).

[8] = tested on: AngII-infused XXF and XYM Ldlr−/− mice; conditions: nicotine 4 mg/kg/day co-infused with AngII 1,000 ng/kg/min
Description: (§2) Mice were fed a Western diet beginning one week prior to co-infusion of AngII (1,000 ng/kg/min) and nicotine (4 mg/kg/day^130). Ultrasound as used to quantify internal lumen diameters of AA to calculate the percentage of mice with pathology (50% increase compared to day 0 of infusions; FIG. 12A). […] Aortas were harvested for RNA extraction, and thus DTA maximal diameters could not be quantified at study endpoint.

Htr3a mRNA = conditions: nicotine co-infused with AngII, compared to AngII
Description: as §2
To define potential mechanisms for these effects, and whether they are linked to 5HT3R, Htr3a mRNA abundance was quantified in DTA and AA of XXF and XYM AngII-infused mice.

[9] = Trop 10 or 20 mg/kg/day, compared to AngII alone

## CN1[C@@H]2CC[C@H]1C[C@@H](OC(=O)c1c[nH]c3ccccc13)C2 [Trop]
[1]; Trop 10 mg/kg/day
  serum cholesterol level: 1683±109.5
  serum triglyceride level: 652±73.6
[1]; Trop 20 mg/kg/day
  serum cholesterol level: 1437±46.7
  serum triglyceride level: 549±54.4
[2]; Trop 10 mg/kg/day
  mean external diameter of abdominal aorta: 1.08±0.13 mm
[2]; Trop 20 mg/kg/day
  mean external diameter of abdominal aorta: 0.87±0.11 mm
[3]; Trop 10 mg/kg/day
  average internal lumen diameter of abdominal aorta on Day 27: 1.32±0.23
[3]; Trop 20 mg/kg/day, compared to AngII, P<0.05
  percent increase in abdominal aorta diameters on Day 27 compared to Day 0: significantly different
[3]; Trop 20 mg/kg/day
  average internal lumen diameter of abdominal aorta on Day 27: 1.20±0.28
[4]; Trop 10 mg/kg/day
  % Incidence of abdominal aneurysms: 30%
  mice with Abdominal Aneurysm Grade 1: 3
  mice with Abdominal Aneurysm Grade 2: 0
  mice with Abdominal Aneurysm Grade 3: 0
  mice with Abdominal Aneurysm Grade 0: 7
  mice with Abdominal Aneurysm Grade 4: 0
[4]; Trop 20 mg/kg/day
  % Incidence of abdominal aneurysms: 20%
  mice with Abdominal Aneurysm Grade 1: 0
  mice with Abdominal Aneurysm Grade 2: 1
  mice with Abdominal Aneurysm Grade 3: 0
  mice with Abdominal Aneurysm Grade 0: 8
  mice with Abdominal Aneurysm Grade 4: 1
[5]; tropisetron 10 mg/kg/day
  atherosclerosis (percent lesion area) in the thoracic aortas: 14.14±6.4%
  percent lesion surface area of the aortic arch: 14.92±5.3%
[5]; tropisetron 20 mg/kg/day
  atherosclerosis (percent lesion area) in the thoracic aortas: 7.43±7.95%
  percent lesion surface area of the aortic arch: 4.24±3.5%
[6]; Trop 10 mg/kg/day by osmotic minipump
  mean weight of the aortas: 0.035 g
[6]; Trop 20 mg/kg/day by osmotic minipump
  mean weight of the aortas: 0.023 g
[6]; [9]
  percentage of AngII-induced pathology of AA: dose-dependent reduction
  percentage of AngII-induced pathology of DTA: dose-dependent reduction
[7]; Trop 10 mg/kg/day
  mean diastolic blood pressure: 83±6.0 mm Hg
  mean systolic blood pressure: 146±5.6 mm Hg
[7]; Trop 20 mg/kg/day
  mean diastolic blood pressure: 70±4.1 mm Hg
  mean systolic blood pressure: 128±4.4 mm Hg

## CN1CCCC1c1cccnc1 (stereo not drawn) [nicotine]
[8]
  percentage of mice with pathology within the AA (50% increase in internal lumen diameter compared to day 0): 50%
Htr3a mRNA; XXF and XYM mice
  Htr3a mRNA abundance in AA: significant increase
Htr3a mRNA
  Htr3a mRNA abundance in DTA: no effect
